Columns and labels:
[1] = target: T1, RARβ (Homo sapiens, UniProt P10826); test: Holoreceptor transactivation assay, RARβ; type: cell-based; conditions: CV-1; CV1 cells; relative to all trans retinoic acid; read-out: Transactivation Assay Efficacy (% of RA activity), RARβ
T1 construct: expressed in transfected cells; host or cells: CV1
T1 sequence (P10826 1-448 isoform P10826-2): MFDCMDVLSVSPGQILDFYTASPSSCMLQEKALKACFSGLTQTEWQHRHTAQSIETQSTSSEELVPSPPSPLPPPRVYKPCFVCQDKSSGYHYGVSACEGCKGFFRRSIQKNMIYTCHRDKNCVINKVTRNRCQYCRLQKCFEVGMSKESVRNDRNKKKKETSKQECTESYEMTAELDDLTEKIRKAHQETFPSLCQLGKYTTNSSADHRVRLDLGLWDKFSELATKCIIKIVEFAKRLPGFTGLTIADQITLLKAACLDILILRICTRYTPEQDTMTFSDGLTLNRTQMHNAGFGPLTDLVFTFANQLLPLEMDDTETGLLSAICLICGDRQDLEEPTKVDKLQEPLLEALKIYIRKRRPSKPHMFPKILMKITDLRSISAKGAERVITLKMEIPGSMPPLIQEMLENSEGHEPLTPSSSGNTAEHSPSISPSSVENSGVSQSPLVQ
Source text: (§1) A holoreceptor transactivation assay and a ligand binding assay which measure the ability of the compounds of the invention to bind to the several retinoid receptor subtypes, respectively, are described in published PCT Application No. WO W093/11755 (particularly on pages 30-33 and 37-41) published on Jun. 24, 1993, the specification of which is also incorporated herein by reference. A description of the holoreceptor transactivation assay is also provided below.
(§2) CV1 cells (5,000 cells/well) were transfected with an RAR reporter plasmid MTV-TREp-LUC (50 ng) along with one of the […] expression vectors (10 ng) in an automated 96-well format by the calcium phosphate procedure of Heyman et al. Cell 68, 397-406. (8). For RXRα and RXR.GAMMA. transactivation assays, an RXR-responsive reporter plasmid CRBPII-tk-LUC (50 ng) along with the appropriate RXRexpression vectors (10 ng) was used substantially as described by Heyman et al. above, and Allegretto et al. J. Biol. Chem. 268, 26625-26633. For RXRβ transactivation assays, an RXR-responsive reporter plasmid CPRE-tk-LUC ([…]) along with RXRβ expression vector ([…]) was used as described in above. These reporters contain DRI elements from human CRBPII and certain DRI elements from promoter, respectively. (see Mangelsdorf et al. The Retinoids: Biology, Chemistry and Medicine, pp 319-349, Raven Press Ltd., New York and Heyman et al., cited above) (1, 8). A β-galactosidase (50 ng) expression vector was used as an internal control in the transfections to normalize for variations in transfection efficiency. The cells were transfected in triplicate for 6 hours, followed by incubation with retinoids for 36 hours, and the extracts were assayed for luciferase and β-galactosidase activities. The detailed experimental procedure for holoreceptor transactivations has been described in Heyman et al. above, and Allegretto et al. cited above. The results obtained in this assay in connection with examplary compounds in accordance with the present invention are expressed in EC50 numbers, as they are also in the chimeric receptor transactivation assay. The Heyman et al. Cell 68, 397-406, Allegretto et al. J. Biol. Chem. 268, 26625-26633, and Mangelsdorf et al. The Retinoids: Biology, Chemistry and Medicine, pp 319-349, Raven Press Ltd., New York, are expressly incorporated herein by reference. The results of ligand binding assay are expressed in Kd numbers. (See Cheng et al. Biochemical Pharmacology Vol. 22 pp 3099-3108, expressly incorporated herein by reference.)

[2] = target: T1, RARβ; test: Ligand binding assay, RARβ
Source text: as §1, §2

[3] = target: T2, RXRα (Homo sapiens, UniProt P19793); test: Ligand binding assay, RXRα
T2 construct: expressed in transfected cells; host or cells: CV1
T2 sequence (P19793 1-462): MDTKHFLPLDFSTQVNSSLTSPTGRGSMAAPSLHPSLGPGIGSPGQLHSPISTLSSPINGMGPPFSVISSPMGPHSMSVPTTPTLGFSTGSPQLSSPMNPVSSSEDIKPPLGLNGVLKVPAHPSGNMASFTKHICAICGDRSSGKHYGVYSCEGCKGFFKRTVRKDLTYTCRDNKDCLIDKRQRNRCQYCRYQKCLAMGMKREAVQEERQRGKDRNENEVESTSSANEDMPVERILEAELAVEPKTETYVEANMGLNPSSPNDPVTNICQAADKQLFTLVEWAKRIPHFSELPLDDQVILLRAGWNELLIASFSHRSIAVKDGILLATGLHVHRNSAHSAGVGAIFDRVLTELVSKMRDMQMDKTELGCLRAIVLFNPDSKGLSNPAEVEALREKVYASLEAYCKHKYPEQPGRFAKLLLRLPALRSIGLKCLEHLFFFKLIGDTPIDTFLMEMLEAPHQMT
Source text: as §1, §2

[4] = target: T3, RXRγ (Mus musculus, UniProt P28705); test: Holoreceptor transactivation assay, RXRγ; type: cell-based; conditions: CV1 cells; for EC50: 36 hours; for Emax: CV-1, relative to all trans retinoic acid, read-out: Transactivation Assay Efficacy (% of RA activity), RXRγ
T3 construct: expressed in transfected cells; host or cells: CV1
T3 sequence (P28705 1-463): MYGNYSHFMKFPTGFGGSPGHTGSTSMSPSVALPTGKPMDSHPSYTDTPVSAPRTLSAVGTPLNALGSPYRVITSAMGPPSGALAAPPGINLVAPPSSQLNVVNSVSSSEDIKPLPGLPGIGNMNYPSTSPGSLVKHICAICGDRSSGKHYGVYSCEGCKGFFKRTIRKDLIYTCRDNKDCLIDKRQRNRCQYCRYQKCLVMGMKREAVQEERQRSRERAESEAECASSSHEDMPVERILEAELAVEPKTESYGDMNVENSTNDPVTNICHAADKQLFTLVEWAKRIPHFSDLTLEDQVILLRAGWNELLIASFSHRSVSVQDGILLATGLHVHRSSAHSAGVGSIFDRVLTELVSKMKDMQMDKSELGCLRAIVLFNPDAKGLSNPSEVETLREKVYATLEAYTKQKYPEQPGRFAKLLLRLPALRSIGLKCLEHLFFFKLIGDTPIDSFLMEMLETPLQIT
Source text: as §1, §2

SMILES	Emax [1]	Kd [2]	Kd [3]	EC50 [4]	Emax [4]
CC1(C)CCC(C)(C)c2cc(Sc3ccc(C(=O)O)cc3)ccc21 [Compound 2]	66%	> 1000 nM	> 1000 nM	–	–
CC1(C)CCC(C)(C)c2cc(S(=O)(=O)c3ccc(C(=O)O)cc3)ccc21 [Compound 5, 4-(5,6,7,8-tetrahydro-5,5,8,8-tetramethyl-2-naphthylsulfonyl)benzoic acid]	4%	> 1000 nM	> 1000 nM	2600 nM	26%
Cc1cc2c(cc1Sc1ccc(C(=O)O)cc1)C(C)(C)CCC2(C)C [Compound 7, 4-(5,6,7,8-tetrahydro-3,5,5,8,8-pentamethyl-2-Daphthylthio)benzoic acid]	4%	> 1000 nM	296 nM	230 nM	67%
Cc1cc2c(cc1[S+]([O-])c1ccc(C(=O)O)cc1)C(C)(C)CCC2(C)C (stereo not shown) [Compound 9, 4-(5,6,7,8-tetrahydro-3,5,5,8,8-pentamethyl-2-naphthylsulfoxy)benzoic acid]	4%	> 1000 nM	> 1000 nM	1600 nM	28%
Cc1cc2c(cc1S(=O)(=O)c1ccc(C(=O)O)cc1)C(C)(C)CCC2(C)C [Compound 11, 4-(5,6,7,8-tetrahydro-3,5,5,8,8-pentamethyl-2-naphthylsulfonyl)benzoic acid]	6%	> 1000 nM	> 1000 nM	–	–
Cc1cc2c(cc1Sc1ccc(C(=O)O)cn1)C(C)(C)CCC2(C)C [Compound 13]	4%	> 10000 nM	32 nM	42 nM	85%
Cc1cc2c(cc1Sc1ncc(C(=O)O)s1)C(C)(C)CCC2(C)C [Compound 15, 2-(5,6,7,8-Tetrahydro-3,5,5,8,8-pentamethyl-2-naphthylthio)-5-thiazolecarboxylic acid]	0%	> 1000 nM	> 1000 nM	1900 nM	70%

Source: patent US5672710A, “Sulfides, sulfoxides and sulfones disubstituted with a tetrahydronaphthalenyl, chromanyl, thiochromanyl or tetrahydroquinolinyl and substituted phenyl or heteroaryl group, having retinoid-like biological activity” (priority 1995, dated 1997)
